Test [1] addresses Glycogen synthase kinase-3 alpha (Homo sapiens, UniProt P49840). Nature of the test: TR-FRET Assay. The method, boiled down: (§1)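 Enzyme and test compound were first incubated together for 30 minutes in assay buffer. The kinase reaction followed and was stopped with EDTA. The pSer641 signal was read by time-resolved FRET.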
(Time-resolved FRET reads energy transfer from a long-lived donor to a nearby acceptor.)

In test [2] the target is Glycogen synthase kinase-3 beta (Homo sapiens, UniProt P49841). The test can be described thus: TR-FRET Assay. The method, boiled down:
as §1

Several values for one entry are separate records, joined by “and”; a condition that tells them apart may be missing. Equal entries are not always repeated.

Glycogen synthase kinase-3 alpha, sequence (P49840 whole entry): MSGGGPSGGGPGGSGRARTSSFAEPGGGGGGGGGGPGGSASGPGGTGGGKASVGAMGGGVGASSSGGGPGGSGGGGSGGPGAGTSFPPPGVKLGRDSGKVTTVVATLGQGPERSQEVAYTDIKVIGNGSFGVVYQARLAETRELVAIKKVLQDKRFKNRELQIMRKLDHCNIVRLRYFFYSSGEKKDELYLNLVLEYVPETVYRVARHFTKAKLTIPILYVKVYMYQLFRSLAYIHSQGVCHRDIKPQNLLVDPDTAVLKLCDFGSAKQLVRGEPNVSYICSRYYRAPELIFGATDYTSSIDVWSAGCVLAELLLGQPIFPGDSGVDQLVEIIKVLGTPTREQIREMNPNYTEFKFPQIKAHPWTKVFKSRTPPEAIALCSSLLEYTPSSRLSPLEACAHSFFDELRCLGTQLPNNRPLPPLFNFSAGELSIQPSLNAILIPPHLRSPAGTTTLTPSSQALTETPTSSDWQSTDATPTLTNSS
Glycogen synthase kinase-3 beta, sequence (P49841 whole entry): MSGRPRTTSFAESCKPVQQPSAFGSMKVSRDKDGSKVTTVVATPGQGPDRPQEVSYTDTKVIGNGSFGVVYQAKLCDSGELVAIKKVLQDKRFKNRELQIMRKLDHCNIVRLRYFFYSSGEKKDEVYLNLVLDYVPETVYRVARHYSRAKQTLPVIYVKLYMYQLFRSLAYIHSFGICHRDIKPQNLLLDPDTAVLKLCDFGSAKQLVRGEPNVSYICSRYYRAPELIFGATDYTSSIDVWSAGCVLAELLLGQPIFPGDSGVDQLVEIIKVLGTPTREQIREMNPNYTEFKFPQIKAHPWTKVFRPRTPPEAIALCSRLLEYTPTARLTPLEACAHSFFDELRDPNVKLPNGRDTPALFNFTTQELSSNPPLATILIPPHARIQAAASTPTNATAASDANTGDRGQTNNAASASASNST

Take `CC1(C)CC(=O)C2=C(C1)NC1=C(CN=N1)C21COC2(CN(C(=O)CC3CCCC3)C2)C1` (stereo not given) [US20250313563, Compound 947293]: the IC50 in test [1] and in test [2] was less than 100 nM each time.

`Cc1ccc(C(=O)N2CC3(C2)CC2(CO3)C3=C(N=NC3)NC3=C2C(=O)CC(C)(C)C3)c(C)c1` (stereo not given) [US20250313563, Compound 947294]: the IC50 (in general, the concentration that inhibits the measured activity by half) was less than 100 nM in test [1] and 100 to 1000 nM in test [2].

Regarding `Cc1ccccc1CC(=O)N1CC2(C1)CC1(CO2)C2=C(N=NC2)NC2=C1C(=O)CC(C)(C)C2` (stereo not given) [US20250313563, Compound 947295], the half-maximal inhibitory concentration (IC50) in test [1] and in test [2] was less than 100 nM in each case.

For the compound `Cc1cc(C)cc(C(=O)N2CC3(C2)CC2(CO3)C3=C(N=NC3)NC3=C2C(=O)CC(C)(C)C3)c1` (stereo not given) [US20250313563, Compound 947296], the IC50 in test [1] and in test [2] was less than 100 nM throughout.

For `CC1(C)CC(=O)C2=C(C1)NC1=C(CN=N1)C21COC2(CN(C(=O)C3CC3)C2)C1` (stereo not given) [US20250313563, Compound 947297], the IC50 in test [1] and in test [2] was less than 100 nM each time.

Take `CC1(C)CC(=O)C2=C(C1)NC1=C(CN=N1)C21COC2(CN(C(=O)CC3CC3)C2)C1` (stereo not given) [US20250313563, Compound 947298]: the IC50 in test [1] and in test [2] was less than 100 nM throughout.

As for `CC1(C)CC(=O)C2=C(C1)NC1=C(CN=N1)C21COC2(CN(C(=O)CC3CCC3)C2)C1` (stereo not given) [US20250313563, Compound 947299], the IC50 in test [1] and in test [2] was less than 100 nM in each case.

Take `CCCC(=O)N1CC2(C1)CC1(CO2)C2=C(N=NC2)NC2=C1C(=O)CC(C)(C)C2` (stereo not given) [US20250313563, Compound 947300]: the 50% inhibitory concentration (IC50) in test [1] and in test [2] was less than 100 nM in each case.

`CC(C)(C)CC(=O)N1CC2(C1)CC1(CO2)C2=C(N=NC2)NC2=C1C(=O)CC(C)(C)C2` (stereo not given) [US20250313563, Compound 947301]: the IC50 was in the range of 100 to 1000 nM in test [1] and 1000 to 5000 nM in test [2].

In the case of `CC(C)CC(=O)N1CC2(C1)CC1(CO2)C2=C(N=NC2)NC2=C1C(=O)CC(C)(C)C2` (stereo not given) [US20250313563, Compound 947302], the IC50 in test [1] and in test [2] was less than 100 nM in each case.

As for `CC1(C)CC(=O)C2=C(C1)NC1=C(CN=N1)C21COC2(CN(C(=O)C(C)(C)C)C2)C1` (stereo not given) [US20250313563, Compound 947303], the IC50 in test [1] and in test [2] was less than 100 nM throughout.

For the compound `CC(C)C(=O)N1CC2(C1)CC1(CO2)C2=C(N=NC2)NC2=C1C(=O)CC(C)(C)C2` (stereo not given) [US20250313563, Compound 947304], the values for the half-maximal inhibitory concentration (IC50) in test [1] and in test [2] were less than 100 nM and 100 to 1000 nM, respectively.

With `CC1(C)CC(=O)C2=C(C1)NC1=C(CN=N1)C21COC2(CN(C(=O)CC3CCCCC3)C2)C1` (stereo not given) [US20250313563, Compound 947305], the half-inhibitory concentration (IC50) in test [1] and in test [2] was less than 100 nM throughout.

On to `CC1(C)CC(=O)C2=C(C1)NC1=C(CN=N1)C21COC2(CN(C(=O)Cc3ccccc3)C2)C1` (stereo not given) [US20250313563, Compound 947306], for which the IC50 in test [1] and in test [2] was less than 100 nM each time.

As for `CC1(C)CC(=O)C2=C(C1)NC1=C(CN=N1)C21COC2(CN(C(=O)C3(C)CCCC3)C2)C1` (stereo not given) [US20250313563, Compound 947307], the IC50 in test [1] and in test [2] was less than 100 nM each time.

As for `CC1(C)CC(=O)C2=C(C1)NC1=C(CN=N1)C21COC2(CN(C(=O)C3CCCCCC3)C2)C1` (stereo not given) [US20250313563, Compound 947308], the half-inhibitory concentration (IC50) was less than 100 nM in test [1] and 100 to 1000 nM in test [2].

As for `CC[C@]1(c2cccc(-c3ccncc3C)c2)C2=C(CC(C)(C)CC2=O)NC2N=NC(C(F)(F)F)=C21` (stereo not given in full) [US20250313563, Compound 947324], the IC50 in test [1] and in test [2] was less than 100 nM each time.

`CC[C@@]1(c2cccc(-c3ccncc3C)c2)C2=C(CC(C)(C)CC2=O)NC2N=NC(C(F)(F)F)=C21` (stereo not given in full) [US20250313563, Compound 947325]: the IC50 was less than 100 nM in test [1] and 100 to 1000 nM in test [2].

`CC[C@]1(c2cccc(-c3ccncc3F)c2)C2=C(CC(C)(C)CC2=O)NC2N=NC(C(F)(F)F)=C21` (stereo not given in full) [US20250313563, Compound 947326]: the IC50 in test [1] and in test [2] was less than 100 nM throughout.

On to `CC[C@@]1(c2cccc(-c3ccncc3F)c2)C2=C(CC(C)(C)CC2=O)NC2N=NC(C(F)(F)F)=C21` (stereo not given in full) [US20250313563, Compound 947327], for which the IC50 in test [1] was less than 100 nM; in test [2], 100 to 1000 nM.

Turning to `CC[C@]1(c2cccc(-c3ccnc(C)c3C)c2)C2=C(CC(C)(C)CC2=O)NC2N=NC(C(F)(F)F)=C21` (stereo not given in full) [US20250313563, Compound 947328], the IC50 in test [1] and in test [2] was 100 to 1000 nM in each case.

In the case of `CCC1(c2cccc(C(F)(F)F)c2)C2=CN=NC2NC2=C1C(=O)N(c1ccc(OC)cc1)CC2` (stereo not given) [US20250313563, Compound 947332], the IC50 is less than 100 nM in test [1] and 100 to 1000 nM in test [2].

`CCN(c1cccc([C@]2(CC)C3=CN=NC3NC3=C2C(=O)CC(C)(C)C3)c1)c1ncccn1` (stereo not given in full) [US20250313563, Compound 947334]: the results for the IC50 in test [1] and in test [2] were 100 to 1000 nM and 1000 to 5000 nM, respectively.

As for `CC[C@]1(c2cccc(N(C)c3nccc(OC)n3)c2)C2=CN=NC2NC2=C1C(=O)CC(C)(C)C2` (stereo not given in full) [US20250313563, Compound 947336], the IC50 in test [1] is < 100 nM and 100 to 1000 nM; in test [2], < 100 nM and 1000 to 5000 nM.

On to `CC[C@@]1(c2cccc(N(C)c3nccc(OC)n3)c2)C2=CN=NC2NC2=C1C(=O)CC(C)(C)C2` (stereo not given in full) [US20250313563, Compound 947337], for which the IC50 in test [1] lay within 100 to 1000 nM; in test [2] it was 1000 to 5000 nM.

Regarding `CC[C@@]1(c2cccc(-c3cc(C)ncc3C)c2)C2=C(CC(C)(C)NC2=O)NC2N=NC(C(F)(F)F)=C21` (stereo not given in full) [US20250313563, Compound 947364], the IC50 in test [1] and in test [2] was 100 to 1000 nM throughout.

As for `CC[C@]1(c2cccc(-c3ccnn3C)c2)C2=C(CC(C)(C)CC2=O)NC2N=NC(C(F)(F)F)=C21` (stereo not given in full) [US20250313563, Compound 947365], the IC50 in test [1] was in the range of 100 to 1000 nM; in test [2], 1000 to 5000 nM.

Regarding `CC[C@@]1(c2cccc(-c3ccnn3C)c2)C2=C(CC(C)(C)CC2=O)NC2N=NC(C(F)(F)F)=C21` (stereo not given in full) [US20250313563, Compound 947372], the IC50 in test [1] and in test [2] was less than 100 nM in each case.

Consider `CC[C@]1(c2cccc(-c3cc(C)nn3C)c2)C2=C(CC(C)(C)CC2=O)NC2N=NC(C(F)(F)F)=C21` (stereo not given in full) [US20250313563, Compound 947383], for which the IC50 is 1000 to 5000 nM in test [1] and greater than 5000 nM in test [2].

With `CC[C@@]1(c2cccc(-c3cc(C)nn3C)c2)C2=C(CC(C)(C)CC2=O)NC2N=NC(C(F)(F)F)=C21` (stereo not given in full) [US20250313563, Compound 947384], the half-inhibitory concentration (IC50) in test [1] is less than 100 nM; in test [2], < 100 nM and 100 to 1000 nM.

In the case of `CCC1(c2cccc(S(C)(=O)=O)c2)C2=C(CC(C)(C)NC2=O)NC2N=NC(C)=C21` (stereo not given) [US20250313563, Compound 947395B:], the IC50 in test [1] and in test [2] was less than 100 nM throughout.

`CCC1(c2cccc(S(C)(=O)=O)c2)C2=C(CC(C)(C)NC2=O)NC2N=NC(C)=C21` (stereo not given) [US20250313563, Compound 947395]: the 50% inhibitory concentration (IC50) in test [1] and in test [2] was 100 to 1000 nM throughout.

For `CCC1(c2cccc(S(=O)(=O)C(C)C)c2)C2=C(CC(C)(C)NC2=O)NC2N=NC(C)=C21` (stereo not given) [US20250313563, Compound 947396], the IC50 in test [1] and in test [2] was less than 100 nM throughout.

With `CCC1(c2cccc(-c3cnnn3C(C)C)c2)C2=CN=NC2NC2=C1C(=O)CC(C)(C)C2` (stereo not given) [US20250313563, Compound 947397], the half-maximal inhibitory concentration (IC50) in test [1] and in test [2] was less than 100 nM each time.

`CCC1(c2cccc(-c3cnnn3C)c2)C2=CN=NC2NC2=C1C(=O)CC(C)(C)C2` (stereo not given) [US20250313563, Compound 947398]: the IC50 in test [1] and in test [2] was less than 100 nM in each case.

For `CCC1(c2cccc(-c3ccnc(C)c3C)c2)C2=C(CC(C)(C)NC2=O)NC2N=NC(C)=C21` (stereo not given) [US20250313563, Compound 947399], the IC50 in test [1] is 100 to 1000 nM; in test [2], 1000 to 5000 nM.

`CCC1(c2cccc(Oc3ncccn3)c2)C2=CN=NC2NC2=C1C(=O)CC(C)(C)C2` (stereo not given) [US20250313563, Compound 947400]: the IC50 in test [1] and in test [2] was less than 100 nM in each case.

On to `CCC1(c2cccc(-c3cc(C)ncc3F)c2)C2=CN=NC2NC2=C1C(=O)NC(C)(C)C2` (stereo not given) [US20250313563, Compound 947401], for which the IC50 was < 100 nM and 100 to 1000 nM in test [1]; 100 to 1000 nM and > 5000 nM in test [2].

Regarding `CCC1(c2cccc(-c3ccnc(C)c3F)c2)C2=C(CC(C)(C)NC2=O)NC2N=NC(C)=C21` (stereo not given) [US20250313563, Compound 947402], the values for the concentration for half-maximal inhibition (IC50) in test [1] and in test [2] were less than 100 nM and 100 to 1000 nM, respectively.

Take `CCC1(c2cccc(-c3cnn(C)c3C)c2)C2=C(CC(C)(C)NC2=O)NC2N=NC(C(F)(F)F)=C21` (stereo not given) [US20250313563, Compound 947403]: the IC50 in test [1] was less than 100 nM; in test [2], < 100 nM and 100 to 1000 nM.

For `CCC1(c2cccc(-c3cnn(C)c3)c2)C2=C(CC(C)(C)NC2=O)NC2N=NC(C(F)(F)F)=C21` (stereo not given) [US20250313563, Compound 947405], the half-inhibitory concentration (IC50) in test [1] is less than 100 nM; in test [2], < 100 nM and 100 to 1000 nM.

On to `CC[C@@]1(c2cccc(-c3ccnc(C)c3)c2)C2=CN=NC2NC2=C1C(=O)N[C@@]1(CCOC1)C2` (stereo not given in full) [US20250313563, Compound 947406], for which the half-inhibitory concentration (IC50) in test [1] was < 100 nM and 100 to 1000 nM; in test [2], 100 to 1000 nM and > 5000 nM.

Turning to `CC[C@@]1(c2cccc(-c3c(C)nn(C)c3C)c2)C2=CN=NC2NC2=C1C(=O)NC(C)(C)C2` (stereo not given in full) [US20250313563, Compound 947408], the half-maximal inhibitory concentration (IC50) in test [1] is < 100 nM and 100 to 1000 nM; in test [2] it was < 100 nM and 1000 to 5000 nM.

In the case of `CC[C@]1(c2cccc(-c3ccncc3C)c2)C2=C(CC(C)(C)NC2=O)NC2N=NC(C)=C21` (stereo not given in full) [US20250313563, Compound 947409], the IC50 in test [1] is 1000 to 5000 nM; in test [2] it was greater than 5000 nM.

With `CC[C@@]1(c2cccc(-c3cnn4c3CCCC4)c2)C2=CN=NC2NC2=C1C(=O)NC(C)(C)C2` (stereo not given in full) [US20250313563, Compound 947410], the half-inhibitory concentration (IC50) in test [1] is < 100 nM and 100 to 1000 nM; in test [2], 100 to 1000 nM and > 5000 nM.
